Test results from patent US20150087037A1, “FERMENTATION PROCESS” (LanzaTech New Zealand Limited, priority 2013, published 2015).

Legend:
[1] = test system: C. autoethanogenum DSM23693; assay: Single reactor fermentation optimised for 2,3-BDO production, single 2-HIBA addition (Example 1); format: cell-based, Clostridium autoethanogenum
Description: (§1) Fermentations with C. autoethanogenum DSM23693 were carried out in 1.5 L bioreactors at 37° C. The media was prepared according to Table 1. To achieve anaerobicity the reactor vessel was sparged with nitrogen. Prior to inoculation, the gas was switched to either steel mill gas containing H2 (3%), N2 (30%), CO (47%) and CO2 (20%) or pure gases (50% CO, 18-40% CO2, with the balance N2). The gas flow was initially set at 67 ml/min/L, increasing to 200 ml/min during mid-exponential phase, while the agitation was increased from 200 rpm to 800. Na2S was dosed into the bioreactor at 0.25 ml/hr. Once the OD600 reached 1.5, the bioreactor was switched to a continuous mode at a dilution rate of 2.0-1.6 d-l and a bacterial dilution rate of 0.9-0.6 d-l. During continuous mode gas and agitation were adjusted to 900-950 rpm and 800-900 ml/min. Na2S was increased to 1.0 ml/hr.
(§2) Liquid culture samples were taken at differing intervals over the duration of the fermentation. These samples were used to establish the optical density at 600 nm (spectrophotometer) and the level of substrates and products (high performance liquid chromatography—HPLC). HPLC was routinely used to quantify the level of acetate, ethanol and 2,3-butanediol. The input and output gas compositions were analysed using a gas chromatographer (GC), allowing measurement of CO and H2 consumption and CO2 production by the culture.
The impacts of 2-HIBA were investigated on a single reactor system which had been optimised for 2,3-BDO production. This was done to ascertain the impact that this chemical would have on a high performance system and obtain information on suitable concentrations that would not interfere with overall fermentation stability.
The 2,3-BDO concentration increased from 6 g/L to 12 g/L dropping the ratio from 4:1 to as low as 1.4:1. […] The concentration of 2-HIBA was monitored in the reactor liquid outflow. […] The 2-HIBA washes out of the fermenter according to the bacterial dilution rate.

[2] = test system: C. autoethanogenum DSM23693; assay: Fermentation started in the presence of 2-HIBA, impact on growth (Example 5); format: cell-based, Clostridium autoethanogenum
Description: as §1, §2
To see if the 2-HIBA impacts negatively on growth a fermentation was started in the presence of 0.05 g/L (0.48 mM) 2-HIBA. During growth gas and agitation were increased so that by day 5.0 the agitation had reached a maximum of 950 rpm and the gas flow 800 ml/min. At this time the dilution rate was 1.8 day^−1 and the bacterial dilution rate 0.85 day^−1.

[3] = test system: LZ1561; assay: Differential gene expression analysis before and after 2-HIBA addition (Example 6); format: cell-based, Clostridium autoethanogenum
Text: In order to understand the impact of 2-HIBA on the metabolism of LZ1561 samples were taken for gene expression analysis. A reactor was started up as a batch and after 1 day was turned continuous at a D=1.4 day^−1. Gas flow and agitation were adjusted in order to minimise acetate and maximise ethanol and 2,3-BDO production. By day 7 the Ethanol:2,3-BDO ratio was less than 5:1 and the gas had reached target CO uptake of between 5-6 mol/L/day. On day 9.6 a sample was taken for gene expression analysis representing stable data without 2-HIBA. […] The results for this analysis indicated very clearly that 2-HIBA interacts with the Branch Chain Amino Acid biosynthesis pathway (BCAA). From the results a mode of action of 2-HIBA was proposed and this is illustrated and described in FIG. 11.

[4] = test system: Ketol-acid reductoisomerase IlvC; assay: Inhibition of ketol-acid reductoisomerase; format: biochemical, Clostridium autoethanogenum; conditions: mode of action proposed from gene expression and BCAA data
Text: The addition of 2-HIBA impacts the metabolism of Clostridium autoethanogenum. […] In native systems the expression and activity of Acetolcatate synthase IlvBN is down regulated by branched chain amino acid synthesis. The addition of 2-HIBA to the fermentation inhibits Ketol-acid recuctoisomerase IlvC, branch chained amino acid biosynthesis, which results in a decrease in the concentration of valine, isoleucine and leucine. As a result, feedback inhibition of the IlvBN enzyme by valine, isoleucine and leucine is removed. This causes an increase in acetolactate production. An increase in the acetolactate pool leads to an overflow of carbon to 2,3-butanediol. The conversion of acetolactate and acetoin to 2,3-BDO are not rate limited, and conversion to 2,3-BDO freely occurs without the need to further up regulate enzymes responsible for the conversion of acetolactate to acetoin and/or the conversion of acetoin to 2,3-BDO.
Ketol-acid reductoisomerase is inhibited by the presence of 2-HIBA. It is considered that other compounds having similar structural characteristics to 2-HIBA and the substrates that the enzyme works on (acetolactate. 2-oxo-3-hydroxyisovalerate and 2,3-dihydroxy-3-methylbutanoate) would have a similar effect on Ketol acid reductoisomerase. […]

[5] = test system: Clostridium autoethanogenum; assay: Fermentation of gaseous substrate comprising CO with 2-HIBA: general findings and carbon balance; format: cell-based
Text: Accordingly, the inventors are the first to devise a process for producing high concentrations of 2,3-butanediol through the microbial fermentation of a gaseous substrate comprising CO. In a first stage, a gaseous substrate comprising CO is fed to a bioreactor containing a culture of one or more microorganisms suspending in liquid nutrient media. The gaseous substrate is anaerobically fermented to produce one or more alcohols and/or one or more acids or mixtures thereof. Compounds are provided to the fermentation to alter the metabolite profile of the fermentation.
Carbon balance measurements were performed to confirm the shift to increased 2,3-butanediol production after addition of 2-HIBA.
As the 2-HIBA is not consumed by the fermentation, it is possible to recover 2-HIBA exiting the bioreactor and pass it back to the bioreactor to improve the efficiency of the fermentation.

[6] = 0 mM vs 4.8 mM 2-HIBA addition, down-regulated
[7] = 0 mM vs 4.8 mM 2-HIBA addition, up-regulated

In the case of CC(C)(O)C(=O)O [2-HIBA, 2-hydroxyisobutyric acid], the “impact on gas uptake” value ([1]; 0.5 g/L (4.8 mM) 2-HIBA) is reported as “not to have a detrimental impact on gas uptake”, the “metabolite profile of the fermentation” value ([1]; 0.5 g/L (4.8 mM) 2-HIBA, FIG. 1) is reported as “increasing the production of 2,3-butanediol whilst decreasing the production of ethanol, acetate and biomass” and the “2,3-BDO concentration” value ([1]; after 0.5 g/L (4.8 mM) 2-HIBA added on day 7.95, increased from 6 g/L) is reported as 12 g/L. The “overall washout rate of 2-HIBA” value ([1]; matched the bacterial dilution rate) was 0.7 day⁻¹, the “initial washout rate of 2-HIBA” value ([1]; similar to the dilution rate) was ~1.8 day⁻¹ and the average ethanol concentration ([2]; 0.05 g/L (0.48 mM) 2-HIBA) was 17 g/L. For the same compound, the “impact on the growth of the fermentation” value ([2]; 0.05 g/L (0.48 mM) 2-HIBA in the media from start) was “no impact on the growth”, the “2,3-butanediol concentration” value ([2]; 0.05 g/L (0.48 mM) 2-HIBA, average) was 15.5 g/L and the “log2 fold_change, or1907 Indole-3-glycerol phosphate synthase CDS” value [3, 6] was −3.042. The “log2 fold_change, or2161 Alcohol dehydrogenase CDS” value [3, 6] was −3.476, the “log2 fold_change, or2739 Glutamate synthase (NADPH) CDS” value [3, 6] was −3.498 and the “log2 fold_change, or2997 Glycerol dehydrogenase CDS” value [3, 6] was −4.924. For the same compound, the “log2 fold_change, or3075 Glucarate dehydratase CDS” value [3, 6] was −4.084, the “log2 fold_change, or3076 hypothetical protein CDS” value [3, 6] was −3.469 and the “log2 fold_change, or3079 Methylglyoxal reductase (NADPH-dependent) CDS” value [3, 6] was −4.02. For the same compound, the “log2 fold_change, or3080 transcriptional regulator, CdaR CDS” value [3, 6] was −3.947, the “log2 fold_change, or1190 2-isopropylmalate synthase CDS” value [3, 7] was 3.63 and the “log2 fold_change, or1191 3-isopropylmalate dehydratase large subunit CDS” value [3, 7] was 3.55. The “log2 fold_change, or1193 3-isopropylmalate dehydrogenase CDS” value [3, 7] was 3.289, the “log2 fold_change, or2387 Ketol-acid reductoisomerase CDS” value [3, 7] was 3.202 and the “log2 fold_change, or2388 Dihydroxy-acid dehydratase CDS” value [3, 7] was 2.901. For the same compound, the “log2 fold_change, or2389 acetolactate synthase, large subunit, biosynthetic type CDS” value [3, 7] was 3.255, the “log2 fold_change, or2390 acetolactate synthase, small subunit CDS” value [3, 7] was 3.237 and the “log2 fold_change, or2461 General substrate transporter CDS” value [3, 7] was 2.867. The response in metabolites ([3]; 0.5 g/L (4.8 mM) 2-HIBA added on day 10.78) was “decreasing acetate, ethanol and biomass with increasing 2,3-BDO”, the Biomass ([3]; Day 12.8-14.0, stable 0.5 g/L HIBA addition, before 4.7) was 3.45 g/L and the CO uptake ([3]; Day 12.8-14.0, stable 0.5 g/L HIBA addition, before 5.7) was 5.1 mol/L/day. The “effect on Ketol-acid reductoisomerase” value [4] was “inhibited”, the “2,3-BDO concentration” value ([5]; 2-HIBA at 0.01 g/L-2.0 g/L (0.096 to 19.2 mM)) was “significantly increases” and the “ethanol:2,3-BDO ratio” value ([5]; addition of 2-HIBA) was “significantly improves”. The carbon balance ([5]; before and after addition of 2-HIBA, FIG. 14) was “clear increase in 2,3-butanediol production, accompanied by a decrease in production of ethanol, acetate and biomass” and the overall fermentation stability ([5]; continuous addition, 0.01 g/L/day-2.0 g/L/day (0.096 to 19.2 mM/day)) was “without affecting overall fermentation stability”.
